Data taken from patent US20080107619A1, “Carbohydrate based cellulase inhibitors as feeding stimulants in termites” (University of Florida Research Foundation, Inc., priority 2006, published 2008).

Experiments:
β-glucosidase = test: Post-feeding inhibition of β-glucosidase activity in whole-body homogenates; assay type: in vivo, R. flavipes; details: after 24 days feeding at 25 mM and above
Protocol: (§1) Whole body homogenates were used for optimization and post-feeding inhibition studies. Here, 10-15 termite workers were homogenized in 1 to 1.5 ml ice-cold homogenization buffer with a Teflon-glass (Potter-Elvehjem) homogenizer powered by a motorized electric stirrer (Fisher Scientific). After homogenization, both gut region and whole-body preparations were centrifuged at 15,000× g and 4° C. for 15 min. The resulting supernatants from the different gut regions were used directly for subsequent enzyme assays. Supernatants from whole-body homogenates were passed through glass wool to remove excess lipids before proceeding with cellulase activity assays.
(§2) Cellulase activity assays were adapted from Han et al. in “Characterization of a bifunctional cellulase and its structural gene,” J. Biol. Chem. 270 (1995) 26012-26019, with optimization for a 96-well microplate format. […] Color was allowed to develop on ice for 15 min before measuring absorbance at 540 nm relative to a glucose standard curve.
(§3) The hydrolysis product of both the pNPC and pNPG substrates is p-nitrophenol, which is yellow in color and permits for direct quantification of activity in a kinetic assay. pNPC and pNPG assays were initially incubated at 32° C. for 20 min before measuring the release of the product, p-nitrophenol, at 420 nm. […]

exoglucanase = test: Post-feeding inhibition of exoglucanase activity in whole-body homogenates; assay type: in vivo, R. flavipes; details: after 24 days feeding at 5 mM and above
Protocol: as §1, §2, §3

[1] = molecular target: T1, 6A cellobiohydrolase (exoglucanase) (Trichoderma reesei, UniProt P07987); details: non-competitive inhibition; Vonhoff et al.; read-out: I50; cited from earlier work
T1 sequence (P07987 25-471): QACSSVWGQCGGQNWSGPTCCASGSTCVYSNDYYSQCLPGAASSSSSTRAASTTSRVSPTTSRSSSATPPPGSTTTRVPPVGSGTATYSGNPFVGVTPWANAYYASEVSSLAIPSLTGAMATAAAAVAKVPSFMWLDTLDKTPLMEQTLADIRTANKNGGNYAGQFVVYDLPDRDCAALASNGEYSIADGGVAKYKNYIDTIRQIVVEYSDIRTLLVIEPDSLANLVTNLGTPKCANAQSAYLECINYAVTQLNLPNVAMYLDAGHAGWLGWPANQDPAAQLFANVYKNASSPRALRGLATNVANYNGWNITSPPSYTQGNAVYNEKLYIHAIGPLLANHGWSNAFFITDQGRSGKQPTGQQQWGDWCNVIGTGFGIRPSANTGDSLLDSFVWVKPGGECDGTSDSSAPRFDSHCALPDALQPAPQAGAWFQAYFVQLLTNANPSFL

[2] = molecular target: T2, Cel7A cellobiohydrolase (exoglucanase) (Trichoderma reesei, UniProt P62694); details: non-competitive inhibition; Vonhoff et al.; read-out: I50; cited from earlier work
T2 sequence (P62694 18-513): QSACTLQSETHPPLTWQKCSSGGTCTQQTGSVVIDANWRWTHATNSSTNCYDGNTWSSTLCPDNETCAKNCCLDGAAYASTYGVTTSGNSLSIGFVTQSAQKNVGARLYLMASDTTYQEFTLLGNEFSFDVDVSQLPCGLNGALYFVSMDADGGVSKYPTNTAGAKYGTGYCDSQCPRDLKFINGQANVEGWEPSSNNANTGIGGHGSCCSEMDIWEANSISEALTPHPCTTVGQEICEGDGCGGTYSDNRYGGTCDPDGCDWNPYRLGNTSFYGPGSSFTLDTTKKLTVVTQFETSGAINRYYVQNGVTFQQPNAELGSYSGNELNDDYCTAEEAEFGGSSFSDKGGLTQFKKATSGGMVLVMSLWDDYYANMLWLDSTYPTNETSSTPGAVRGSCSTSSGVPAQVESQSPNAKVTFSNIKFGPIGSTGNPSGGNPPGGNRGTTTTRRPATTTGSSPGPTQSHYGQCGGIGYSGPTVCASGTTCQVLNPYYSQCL

OC[C@@H]1[C@@H](O[C@@H]2O[C@H](CO)[C@@H](O)[C@H](O)[C@H]2O)[C@H](O)[C@@H](O)c2nccn21 [CBI, cellobioimidazole]
β-glucosidase activity, maximal reduction relative to controls (β-glucosidase): ~90% | Exoglucanase activity, maximal reduction relative to controls (exoglucanase): ~75% | IC50 [1]: 1000 nM | IC50 [2]: 130 µM
